Reference: the NIST ThermoML archive (doi:10.1021/je101173w)
Numbers after ± are expanded uncertainties.

Experiment: mn = molality of the nth substance listed, in mol/kg
Details: 101 kPa, Liquid; for viscosity: Capillary tube (Ostwald / Ubbelohde) method; for mass density: Vibrating tube method

Oc1cccc(O)c1 [1,3-benzenediol] + CCCCO gave a viscosity (293.15 K, m1 = 1.016) of 4.518 ± 0.027 mPa·s, a viscosity (293.15 K, m1 = 2.196) of 7.007 ± 0.039 mPa·s and a viscosity (293.15 K, m1 = 3.586) of 11.56 ± 0.061 mPa·s. It also gave a viscosity (293.15 K, m1 = 5.247) of 19.75 ± 0.1 mPa·s, a viscosity (293.15 K, m1 = 7.265) of 34.34 ± 0.17 mPa·s and a mass density (293.15 K, m1 = 1.016) of 844.32 ± 0.16 kg/m3. It also gave a mass density (293.15 K, m1 = 2.196) of 878.29 ± 0.15 kg/m3, a mass density (293.15 K, m1 = 3.586) of 910.51 ± 0.14 kg/m3 and a mass density (293.15 K, m1 = 5.247) of 942.6 ± 0.13 kg/m3. For the same molecule, the mass density (293.15 K, m1 = 7.265) was 974.13 ± 0.13 kg/m3, the viscosity (303.15 K, m1 = 1.016) was 3.357 ± 0.021 mPa·s and the viscosity (303.15 K, m1 = 2.196) was 5.06 ± 0.03 mPa·s. It also gave a viscosity (303.15 K, m1 = 3.586) of 8.021 ± 0.044 mPa·s, a viscosity (303.15 K, m1 = 5.247) of 12.64 ± 0.066 mPa·s and a viscosity (303.15 K, m1 = 7.265) of 20.69 ± 0.11 mPa·s. It also gave a mass density (303.15 K, m1 = 1.016) of 836.69 ± 0.16 kg/m3, a mass density (303.15 K, m1 = 2.196) of 870.07 ± 0.15 kg/m3 and a mass density (303.15 K, m1 = 3.586) of 902.98 ± 0.14 kg/m3. For the same molecule, the mass density (303.15 K, m1 = 5.247) was 935.1 ± 0.13 kg/m3, the mass density (303.15 K, m1 = 7.265) was 966.7 ± 0.13 kg/m3 and the viscosity (313.15 K, m1 = 1.016) was 2.54 ± 0.016 mPa·s. It also gave a viscosity (313.15 K, m1 = 2.196) of 3.71 ± 0.023 mPa·s, a viscosity (313.15 K, m1 = 3.586) of 5.552 ± 0.033 mPa·s and a viscosity (313.15 K, m1 = 5.247) of 8.601 ± 0.047 mPa·s. It also gave a viscosity (313.15 K, m1 = 7.265) of 13.18 ± 0.069 mPa·s, a mass density (313.15 K, m1 = 1.016) of 828.92 ± 0.16 kg/m3 and a mass density (313.15 K, m1 = 2.196) of 862.36 ± 0.15 kg/m3. For the same molecule, the mass density (313.15 K, m1 = 3.586) was 895.33 ± 0.14 kg/m3, the mass density (313.15 K, m1 = 5.247) was 927.53 ± 0.13 kg/m3 and the mass density (313.15 K, m1 = 7.265) was 959.2 ± 0.13 kg/m3. The viscosity (323.15 K, m1 = 1.016) was 1.972 ± 0.012 mPa·s, the viscosity (323.15 K, m1 = 2.196) was 2.809 ± 0.017 mPa·s and the viscosity (323.15 K, m1 = 3.586) was 4.091 ± 0.025 mPa·s. It also gave a viscosity (323.15 K, m1 = 5.247) of 6.096 ± 0.035 mPa·s, a viscosity (323.15 K, m1 = 7.265) of 8.804 ± 0.048 mPa·s and a mass density (323.15 K, m1 = 1.016) of 821.01 ± 0.16 kg/m3. The mass density (323.15 K, m1 = 2.196) was 854.51 ± 0.15 kg/m3, the mass density (323.15 K, m1 = 3.586) was 887.57 ± 0.14 kg/m3 and the mass density (323.15 K, m1 = 5.247) was 919.86 ± 0.14 kg/m3. The mass density (323.15 K, m1 = 7.265) was 951.6 ± 0.13 kg/m3, the viscosity (333.15 K, m1 = 1.016) was 1.674 ± 0.011 mPa·s and the viscosity (333.15 K, m1 = 2.196) was 2.33 ± 0.014 mPa·s. The viscosity (333.15 K, m1 = 3.586) was 3.274 ± 0.02 mPa·s, the viscosity (333.15 K, m1 = 5.247) was 4.84 ± 0.029 mPa·s and the viscosity (333.15 K, m1 = 7.265) was 6.635 ± 0.037 mPa·s. It also gave a mass density (333.15 K, m1 = 1.016) of 812.92 ± 0.16 kg/m3, a mass density (333.15 K, m1 = 2.196) of 846.52 ± 0.15 kg/m3 and a mass density (333.15 K, m1 = 3.586) of 879.68 ± 0.15 kg/m3. For the same molecule, the mass density (333.15 K, m1 = 5.247) was 912.09 ± 0.14 kg/m3 and the mass density (333.15 K, m1 = 7.265) was 943.92 ± 0.13 kg/m3.

Oc1cccc(O)c1 [1,3-benzenediol] + CCCO gave a viscosity (293.15 K, m1 = 1.252) of 3.605 ± 0.022 mPa·s, a viscosity (293.15 K, m1 = 2.709) of 6.043 ± 0.035 mPa·s and a viscosity (293.15 K, m1 = 4.423) of 10.37 ± 0.056 mPa·s. For the same molecule, the viscosity (293.15 K, m1 = 6.471) was 18.52 ± 0.096 mPa·s, the viscosity (293.15 K, m1 = 8.959) was 33.22 ± 0.16 mPa·s and the mass density (293.15 K, m1 = 1.252) was 846.41 ± 0.15 kg/m3. It also gave a mass density (293.15 K, m1 = 2.709) of 886.87 ± 0.14 kg/m3, a mass density (293.15 K, m1 = 4.423) of 924.61 ± 0.14 kg/m3 and a mass density (293.15 K, m1 = 6.471) of 960.5 ± 0.13 kg/m3. It also gave a mass density (293.15 K, m1 = 8.959) of 994.1 ± 0.12 kg/m3, a viscosity (303.15 K, m1 = 1.252) of 2.74 ± 0.017 mPa·s and a viscosity (303.15 K, m1 = 2.709) of 4.375 ± 0.026 mPa·s. For the same molecule, the viscosity (303.15 K, m1 = 4.423) was 7.225 ± 0.041 mPa·s, the viscosity (303.15 K, m1 = 6.471) was 12.05 ± 0.064 mPa·s and the viscosity (303.15 K, m1 = 8.959) was 20.29 ± 0.1 mPa·s. For the same molecule, the mass density (303.15 K, m1 = 1.252) was 838.23 ± 0.16 kg/m3, the mass density (303.15 K, m1 = 2.709) was 878.7 ± 0.15 kg/m3 and the mass density (303.15 K, m1 = 4.423) was 916.62 ± 0.14 kg/m3. For the same molecule, the mass density (303.15 K, m1 = 6.471) was 952.55 ± 0.13 kg/m3, the mass density (303.15 K, m1 = 8.959) was 986.39 ± 0.12 kg/m3 and the viscosity (313.15 K, m1 = 1.252) was 2.133 ± 0.013 mPa·s. The viscosity (313.15 K, m1 = 2.709) was 3.292 ± 0.02 mPa·s, the viscosity (313.15 K, m1 = 4.423) was 5.137 ± 0.031 mPa·s and the viscosity (313.15 K, m1 = 6.471) was 8.179 ± 0.045 mPa·s. The viscosity (313.15 K, m1 = 8.959) was 12.82 ± 0.068 mPa·s, the mass density (313.15 K, m1 = 1.252) was 830.12 ± 0.16 kg/m3 and the mass density (313.15 K, m1 = 2.709) was 870.62 ± 0.15 kg/m3. The mass density (313.15 K, m1 = 4.423) was 908.69 ± 0.14 kg/m3, the mass density (313.15 K, m1 = 6.471) was 944.74 ± 0.13 kg/m3 and the mass density (313.15 K, m1 = 8.959) was 978.72 ± 0.12 kg/m3. It also gave a viscosity (323.15 K, m1 = 1.252) of 1.675 ± 0.011 mPa·s, a viscosity (323.15 K, m1 = 2.709) of 2.465 ± 0.015 mPa·s and a viscosity (323.15 K, m1 = 4.423) of 3.736 ± 0.023 mPa·s. It also gave a viscosity (323.15 K, m1 = 6.471) of 5.696 ± 0.033 mPa·s, a viscosity (323.15 K, m1 = 8.959) of 8.199 ± 0.045 mPa·s and a mass density (323.15 K, m1 = 1.252) of 821.85 ± 0.16 kg/m3. The mass density (323.15 K, m1 = 2.709) was 862.49 ± 0.15 kg/m3, the mass density (323.15 K, m1 = 4.423) was 900.65 ± 0.14 kg/m3 and the mass density (323.15 K, m1 = 6.471) was 936.83 ± 0.13 kg/m3. The mass density (323.15 K, m1 = 8.959) was 970.97 ± 0.13 kg/m3, the viscosity (333.15 K, m1 = 1.252) was 1.374 ± 0.0088 mPa·s and the viscosity (333.15 K, m1 = 2.709) was 1.952 ± 0.012 mPa·s. The viscosity (333.15 K, m1 = 4.423) was 2.862 ± 0.018 mPa·s, the viscosity (333.15 K, m1 = 6.471) was 4.195 ± 0.025 mPa·s and the viscosity (333.15 K, m1 = 8.959) was 6.412 ± 0.036 mPa·s. It also gave a mass density (333.15 K, m1 = 1.252) of 813.35 ± 0.16 kg/m3, a mass density (333.15 K, m1 = 2.709) of 854.18 ± 0.15 kg/m3 and a mass density (333.15 K, m1 = 4.423) of 892.48 ± 0.14 kg/m3. The mass density (333.15 K, m1 = 6.471) was 928.84 ± 0.13 kg/m3 and the mass density (333.15 K, m1 = 8.959) was 963.1 ± 0.13 kg/m3.
